How the values were obtained:
[1] = test system: carbonic anhydrase IX (CA IX); experiment: CA IX gene expression in SaOS-2 cells on discs (qRT-PCR); format: cell-based, human; conditions: normalized to GAPDH, 100 μM gallium nitrate
Procedure: As a marker for the functional activity of the SaOS-2 cells, growing onto titanium discs, the expression of the two genes encoding for the enzymes carbonic anhydrase IX (CA IX) and alkaline phosphatase (ALP) was determined by quantitative qRT-PCR.
(SEQ ID NO: 8). […] (SEQ ID NO. 10).

[2] = test system: alkaline phosphatase (ALP); conditions: normalized to GAPDH, 100 μM gallium nitrate
Procedure: The expression values were normalized to the expression of GAPDH. […] The cultures were incubated at first in the absence of the MAC for 3 d; then they were transferred to medium, supplemented with the MAC, and the incubation was continue for additional 3 or 5 d, as outlined. Then the cells were harvested, RNA was extracted and subjected to qRT-PCR for determination of both CA IX and ALP transcripts; the expression of GAPDH served as reference. Data are expressed as mean values±SD for five independent experiments; each experiment was carried out in duplicate (* P<0.01). nd, not detectable.
In parallel, the expression of the gene for the enzyme ALP was determined, likewise by qRT-PCR.
Bone cell like SaOS-2 cells (human osteogenic sarcoma cells) are cultured in McCoy's medium (Biochrom-Seromed), supplemented with 2 mM L-glutamine, 10% or 15% heat-inactivated fetal calf serum (FCS), and 100 units/ml penicillin and 100 μg/ml streptomycin. The cells are incubated in 25-cm^2 flasks or in 6-well plates (surface area 9.46 cm^2; e.g. from Orange Scientifique) in a humidified incubator at 37° C. […]
The quantitative real-time RT [reverse transcription]-PCR (qRT-PCR) technique is applied to determine the effect of the discs on the expression levels of the following genes in SaOS-2 cells. […] After determinations of the Ct values the expression of the respective transcripts are calculated.

With `O=[N+]([O-])[O-].O=[N+]([O-])[O-].O=[N+]([O-])[O-].[Ga+3]` [gallium nitrate] the “CA IX expression, with Ga, −MAC 0 d” value [1] was 0.24±0.05, the “CA IX expression, with Ga, +MAC 5 d” value ([1]; 3 d −MAC then 5 d +MAC) was 0.89±0.11 and the “ALP expression, with Ga, −MAC 0 d” value [2] was 0.027 ± 0.004. The “ALP expression, with Ga, +MAC 5 d” value ([2]; 3 d −MAC then 5 d +MAC) was 0.111 ± 0.010.
